How the values were obtained:
[1] = biological target: T1, APOL1 G1 Protein (Homo sapiens, UniProt O14791, I384M/S342G); assay: Trypanosoma brucei brucei lysis assay using APOL1 recombinant protein (AlamarBlue viability); type: cell-based; settings: Trypanosoma brucei brucei lysis with recombinant APOL1 protein
T1 sequence (O14791 28-398 S342G/I384M): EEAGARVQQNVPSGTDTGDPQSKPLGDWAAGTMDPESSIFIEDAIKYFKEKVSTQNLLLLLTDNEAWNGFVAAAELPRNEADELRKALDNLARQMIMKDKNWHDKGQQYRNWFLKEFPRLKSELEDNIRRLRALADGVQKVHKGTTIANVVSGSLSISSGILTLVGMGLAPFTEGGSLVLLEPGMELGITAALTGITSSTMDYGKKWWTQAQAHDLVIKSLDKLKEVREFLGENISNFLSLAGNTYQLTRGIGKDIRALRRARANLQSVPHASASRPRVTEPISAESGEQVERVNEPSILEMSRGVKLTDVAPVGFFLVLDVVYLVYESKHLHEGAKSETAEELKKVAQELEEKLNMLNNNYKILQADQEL

[2] = biological target: T2, G1 APOL1 (Homo sapiens, UniProt O14791, I384M/S342G); assay: Acute APOL1 Thallium Assay with inducible stable clones of HEK 293 cells; type: cell-based; settings: HEK 293 T-Rex inducible stable clone expressing G1 APOL1; read-out: Thallium Assay (IC50)
T2 construct: expressed in transfected cells
T2 sequence (O14791 28-398 S342G/I384M): T1 sequence (O14791 28-398 S342G/I384M)
How it was run: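 A tetracycline-inducible HEK293 T-Rex clone (G1 DC3.25) expressing G1 APOL1 was plated at 26,000 cells/well, with tetracycline added at plating to induce expression. Cells were loaded with an AM-ester thallium-sensitive dye and stimulated with Tl+. Pore activity was read as the FLIPR Tetra fluorescence increase from Tl+ influx.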

## NCC1CC(c2c(-c3ccc(F)cc3)[nH]c3c(F)cc(F)cc23)C1 (mixture of isomers) [Compound 186, (3-(5,7-difluoro-2-(4-fluorophenyl)-1H-indol-3-yl)cyclobutyl)methanamine]
[1]
  IC50: < 250 nM
[2]
  IC50: < 250 nM

## N[C@H]1CC[C@H](c2c(-c3ccc(F)cc3)[nH]c3c(F)cc(F)cc32)CC1 (single isomer, unassigned) [Compound 434, Trans-4-[5,7-difluoro-2-(4-fluorophenyl)-1H-indol-3-yl]cyclohexanamine]
[1]
  IC50: < 250 nM
[2]
  IC50: 250 to 1000 nM

## NC1CC(c2c(-c3ccc(F)cc3)[nH]c3c(F)cccc23)C1 (stereo not drawn) [Compound 6, 3-[7-fluoro-2-(4-fluorophenyl)-1H-indol-3-yl]cyclobutanamine]
[1]
  IC50: < 250 nM
[2]
  IC50: 250 to 1000 nM

## O=C(CO)NC1CC(c2c(-c3ccc(F)cc3)[nH]c3c(F)cc(F)cc23)C1 (stereo not drawn) [Compound 15, N-[3-[5,7-difluoro-2-(4-fluorophenyl)-1H-indol-3-yl]cyclobutyl]-2-hydroxy-acetamide]
[1]
  IC50: 250 to 1000 nM
[2]
  IC50: < 250 nM

## CC(C)(O)CC(=O)NC1CC(c2c(-c3ccc(F)cc3)[nH]c3c(F)cc(F)cc23)C1 (stereo not drawn) [Compound 16, N-[3-[5,7-difluoro-2-(4-fluorophenyl)-1H-indol-3-yl]cyclobutyl]-3-hydroxy-3-methyl-butanamide]
[1]
  IC50: 250 to 1000 nM
[2]
  IC50: 250 to 1000 nM

## CC(=O)NC1CC(c2c(-c3ccc(F)cc3)[nH]c3c(F)cc(F)cc23)C1 (stereo not drawn) [Compound 17, N-[3-[5,7-difluoro-2-(4-fluorophenyl)-1H-indol-3-yl]cyclobutyl]acetamide]
[1]
  IC50: 250 to 1000 nM
[2]
  IC50: 250 to 1000 nM

## COCC(=O)NC1CC(c2c(-c3ccc(F)cc3)[nH]c3c(F)cc(F)cc23)C1 (stereo not drawn) [Compound 18, N-[3-[5,7-difluoro-2-(4-fluorophenyl)-1H-indol-3-yl]cyclobutyl]-2-methoxy-acetamide]
[1]
  IC50: 250 to 1000 nM
[2]
  IC50: 250 to 1000 nM

## O[C@H]1C[C@H](c2c(-c3ccc(F)cc3)[nH]c3c(F)cc(F)cc32)C1 [Compound 174, (1r,3r)-3-(5,7-difluoro-2-(4-fluorophenyl)-1H-indol-3-yl)cyclobutan-1-ol]
[1]
  IC50: < 250 nM
[2]
  IC50: < 250 nM

## NCC1CC(c2c(-c3ccc(OC(F)(F)F)cc3)[nH]c3c(F)cc(F)cc23)C1 (stereo not drawn) [Compound 180]
[1]
  IC50: < 250 nM
[2]
  IC50: < 250 nM

## Cc1cccc(-c2[nH]c3c(F)cc(F)cc3c2C2CC(CN)C2)c1 (stereo not drawn) [Compound 181]
[1]
  IC50: < 250 nM
[2]
  IC50: < 250 nM

## NCC1CC(c2c(-c3ccc(OC(F)F)cc3)[nH]c3c(F)cc(F)cc23)C1 (stereo not drawn) [Compound 182]
[1]
  IC50: < 250 nM
[2]
  IC50: < 250 nM

## COc1ccc(-c2[nH]c3c(F)cc(F)cc3c2C2CC(CN)C2)cc1 (stereo not drawn) [Compound 183]
[1]
  IC50: < 250 nM
[2]
  IC50: < 250 nM

## Cc1ccc(-c2[nH]c3c(F)cc(F)cc3c2C2CC(CN)C2)cc1 (stereo not drawn) [Compound 184]
[1]
  IC50: < 250 nM
[2]
  IC50: < 250 nM

## N#Cc1ccc(-c2[nH]c3c(F)cc(F)cc3c2C2CC(CN)C2)cc1 (stereo not drawn) [Compound 185]
[1]
  IC50: < 250 nM
[2]
  IC50: < 250 nM

## NC[C@H]1C[C@@H](c2c(-c3ccc(F)cc3)[nH]c3c(F)cc(F)cc32)C1 [Compound 187, ((1s,3s)-3-(5,7-difluoro-2-(4-fluorophenyl)-1H-indol-3-yl)cyclobutyl)methanamine]
[1]
  IC50: < 250 nM
[2]
  IC50: < 250 nM

## NC[C@H]1C[C@H](c2c(-c3ccc(F)cc3)[nH]c3c(F)cc(F)cc32)C1 [Compound 188, ((1r,3r)-3-(5,7-difluoro-2-(4-fluorophenyl)-1H-indol-3-yl)cyclobutyl)methanamine]
[1]
  IC50: < 250 nM
[2]
  IC50: < 250 nM

## O=C(CO)NCC1CC(c2c(-c3ccc(F)cc3)[nH]c3c(F)cc(F)cc23)C1 (stereo not drawn) [Compound 214]
[1]
  IC50: 250 to 1000 nM
[2]
  IC50: 250 to 1000 nM

## OCCNCC1CC(c2c(-c3ccc(F)cc3)[nH]c3c(F)cc(F)cc23)C1 (stereo not drawn) [Compound 374, 2-[[3-[5,7-difluoro-2-(4-fluorophenyl)-1H-indol-3-yl]cyclobutyl]methylamino]ethanol]
[1]
  IC50: < 250 nM
[2]
  IC50: < 250 nM

From patent publication US12281102B2, “Inhibitors of APOL1 and methods of using same” (Vertex Pharmaceuticals Incorporated, priority 2020, dated 2025)
